The values below come from patent EP4467141A1, “PYRAZOLO-QUINOLINES AS SELECTIVE INHIBITORS OF GENOTOXIC STRESS-INDUCED IKK/NF- KB PATHWAYS FOR CANCER THERAPY” (Max-Delbrück-Centrum für Molekulare Medizin in der …, priority 2023, dated 2024).

Holding throughout (experiment): Kinase panel study
Format in all cases: biochemical
Holding throughout (conditions): read-out: Percentage of inhibition; for inhibition at 1 µM: 1000nM; for inhibition at 10 µM: 10000nM

One test addresses T1, RET Y791F (Homo sapiens, UniProt P07949, Y791F).
T1 construct: purchased Thermo Fisher Scientific
Put shortly: (§1)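 Readout is percentage kinase inhibition. Testing used 1 µM or 10 µM compound in externally run ZLyte/Adapta in vitro assays, and IC50 values were derived within the same panel.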

Another test has as its target T2, TXK (Homo sapiens, UniProt P42681).
T2 construct: purchased Thermo Fisher Scientific
T2 sequence (P42681 1-527): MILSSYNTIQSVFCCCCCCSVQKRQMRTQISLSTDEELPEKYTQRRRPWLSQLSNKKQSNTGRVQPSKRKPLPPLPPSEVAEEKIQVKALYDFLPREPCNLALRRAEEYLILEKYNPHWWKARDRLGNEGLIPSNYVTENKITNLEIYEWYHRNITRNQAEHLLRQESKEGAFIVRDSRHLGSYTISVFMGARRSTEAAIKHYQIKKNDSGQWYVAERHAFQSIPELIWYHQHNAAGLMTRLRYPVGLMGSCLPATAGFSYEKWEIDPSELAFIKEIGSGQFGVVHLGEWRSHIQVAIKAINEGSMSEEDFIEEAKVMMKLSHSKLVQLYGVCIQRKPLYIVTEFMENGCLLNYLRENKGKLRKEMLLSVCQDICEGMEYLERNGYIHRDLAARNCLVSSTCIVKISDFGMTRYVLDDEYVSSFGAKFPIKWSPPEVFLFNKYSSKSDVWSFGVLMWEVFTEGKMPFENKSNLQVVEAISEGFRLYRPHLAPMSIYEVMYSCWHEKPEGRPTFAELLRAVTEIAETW
Put shortly:
as §1

The target in the next test is T3, MET (cMet) (Homo sapiens, UniProt P08581).
T3 construct: purchased Thermo Fisher Scientific
In a few lines: as §1

The next test deals with T4, MET (cMet) Y1235D (Homo sapiens, UniProt P08581, Y1235D).
T4 construct: purchased Thermo Fisher Scientific
Put shortly: as §1

The next test concerns the target T5, LRRK2 G2019S (Homo sapiens, UniProt Q5S007, G2019S).
T5 construct: purchased Thermo Fisher Scientific
In a few lines:
as §1

The next test deals with T6, PKN1 (PRK1) (Homo sapiens, UniProt Q16512).
T6 construct: purchased Thermo Fisher Scientific
In a few lines:
as §1

In another test the target is T7, FLT4 (VEGFR3) (Homo sapiens, UniProt P35916).
T7 construct: purchased Thermo Fisher Scientific
In a few lines: as §1

In the next test the target is T8, RET V804L (Homo sapiens, UniProt P07949, V804L).
T8 construct: purchased Thermo Fisher Scientific
Put shortly:
as §1

The target of another test is T9, EPHA1 (Homo sapiens, UniProt P21709).
T9 construct: purchased Thermo Fisher Scientific
T9 sequence (P21709 26-976): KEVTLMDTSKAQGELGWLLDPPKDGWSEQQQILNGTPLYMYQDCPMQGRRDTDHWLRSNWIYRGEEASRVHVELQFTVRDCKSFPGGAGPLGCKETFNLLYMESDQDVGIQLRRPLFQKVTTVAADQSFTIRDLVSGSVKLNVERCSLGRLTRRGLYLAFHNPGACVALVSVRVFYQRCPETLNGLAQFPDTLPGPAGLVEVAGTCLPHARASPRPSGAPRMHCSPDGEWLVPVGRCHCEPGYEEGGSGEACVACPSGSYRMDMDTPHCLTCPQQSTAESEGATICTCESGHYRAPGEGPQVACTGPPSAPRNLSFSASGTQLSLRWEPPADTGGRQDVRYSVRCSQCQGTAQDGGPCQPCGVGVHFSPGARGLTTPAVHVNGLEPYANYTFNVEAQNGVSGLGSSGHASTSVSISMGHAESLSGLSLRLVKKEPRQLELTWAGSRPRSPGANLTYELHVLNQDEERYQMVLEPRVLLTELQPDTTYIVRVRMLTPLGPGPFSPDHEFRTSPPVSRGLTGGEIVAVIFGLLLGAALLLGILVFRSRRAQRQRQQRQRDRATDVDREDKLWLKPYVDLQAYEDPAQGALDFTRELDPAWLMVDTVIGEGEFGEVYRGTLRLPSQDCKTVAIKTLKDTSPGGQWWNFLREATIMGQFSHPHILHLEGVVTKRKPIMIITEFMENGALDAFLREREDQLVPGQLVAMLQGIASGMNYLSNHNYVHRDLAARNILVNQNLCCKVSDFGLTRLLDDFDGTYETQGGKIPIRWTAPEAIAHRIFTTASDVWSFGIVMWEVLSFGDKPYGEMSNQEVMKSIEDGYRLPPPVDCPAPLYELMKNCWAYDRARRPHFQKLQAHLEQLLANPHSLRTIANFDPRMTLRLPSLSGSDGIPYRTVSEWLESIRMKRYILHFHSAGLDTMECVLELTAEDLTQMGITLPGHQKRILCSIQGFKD
Put shortly:
as §1

SMILES strings stand for the structures.

T8 sequence (P07949 29-1114 V804L): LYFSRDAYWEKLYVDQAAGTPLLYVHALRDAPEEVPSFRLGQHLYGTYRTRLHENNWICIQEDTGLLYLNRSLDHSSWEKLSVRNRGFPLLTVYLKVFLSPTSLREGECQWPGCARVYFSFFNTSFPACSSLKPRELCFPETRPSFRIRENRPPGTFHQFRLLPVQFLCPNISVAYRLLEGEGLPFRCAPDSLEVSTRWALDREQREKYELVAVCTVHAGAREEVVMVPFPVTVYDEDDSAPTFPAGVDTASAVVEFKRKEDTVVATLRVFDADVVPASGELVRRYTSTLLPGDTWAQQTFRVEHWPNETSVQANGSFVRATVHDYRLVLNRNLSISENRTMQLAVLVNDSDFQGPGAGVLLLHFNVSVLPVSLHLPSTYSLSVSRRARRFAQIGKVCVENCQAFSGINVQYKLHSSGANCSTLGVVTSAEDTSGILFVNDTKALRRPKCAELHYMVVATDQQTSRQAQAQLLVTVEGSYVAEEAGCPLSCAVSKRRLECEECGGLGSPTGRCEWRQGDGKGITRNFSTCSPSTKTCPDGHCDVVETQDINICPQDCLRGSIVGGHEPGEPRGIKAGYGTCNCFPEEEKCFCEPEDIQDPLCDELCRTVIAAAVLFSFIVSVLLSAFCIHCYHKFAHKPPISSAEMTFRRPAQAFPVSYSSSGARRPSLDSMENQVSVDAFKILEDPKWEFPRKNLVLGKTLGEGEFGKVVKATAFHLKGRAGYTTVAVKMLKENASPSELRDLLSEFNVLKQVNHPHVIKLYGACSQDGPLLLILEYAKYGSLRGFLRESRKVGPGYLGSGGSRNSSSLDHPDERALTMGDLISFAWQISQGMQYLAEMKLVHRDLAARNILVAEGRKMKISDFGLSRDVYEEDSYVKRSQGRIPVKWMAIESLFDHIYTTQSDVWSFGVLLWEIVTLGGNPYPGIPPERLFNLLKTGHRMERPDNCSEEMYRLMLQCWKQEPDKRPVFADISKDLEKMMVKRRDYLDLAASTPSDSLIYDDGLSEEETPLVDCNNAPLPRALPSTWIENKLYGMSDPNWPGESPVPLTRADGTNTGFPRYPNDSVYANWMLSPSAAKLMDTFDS
T6 sequence (Q16512 whole entry): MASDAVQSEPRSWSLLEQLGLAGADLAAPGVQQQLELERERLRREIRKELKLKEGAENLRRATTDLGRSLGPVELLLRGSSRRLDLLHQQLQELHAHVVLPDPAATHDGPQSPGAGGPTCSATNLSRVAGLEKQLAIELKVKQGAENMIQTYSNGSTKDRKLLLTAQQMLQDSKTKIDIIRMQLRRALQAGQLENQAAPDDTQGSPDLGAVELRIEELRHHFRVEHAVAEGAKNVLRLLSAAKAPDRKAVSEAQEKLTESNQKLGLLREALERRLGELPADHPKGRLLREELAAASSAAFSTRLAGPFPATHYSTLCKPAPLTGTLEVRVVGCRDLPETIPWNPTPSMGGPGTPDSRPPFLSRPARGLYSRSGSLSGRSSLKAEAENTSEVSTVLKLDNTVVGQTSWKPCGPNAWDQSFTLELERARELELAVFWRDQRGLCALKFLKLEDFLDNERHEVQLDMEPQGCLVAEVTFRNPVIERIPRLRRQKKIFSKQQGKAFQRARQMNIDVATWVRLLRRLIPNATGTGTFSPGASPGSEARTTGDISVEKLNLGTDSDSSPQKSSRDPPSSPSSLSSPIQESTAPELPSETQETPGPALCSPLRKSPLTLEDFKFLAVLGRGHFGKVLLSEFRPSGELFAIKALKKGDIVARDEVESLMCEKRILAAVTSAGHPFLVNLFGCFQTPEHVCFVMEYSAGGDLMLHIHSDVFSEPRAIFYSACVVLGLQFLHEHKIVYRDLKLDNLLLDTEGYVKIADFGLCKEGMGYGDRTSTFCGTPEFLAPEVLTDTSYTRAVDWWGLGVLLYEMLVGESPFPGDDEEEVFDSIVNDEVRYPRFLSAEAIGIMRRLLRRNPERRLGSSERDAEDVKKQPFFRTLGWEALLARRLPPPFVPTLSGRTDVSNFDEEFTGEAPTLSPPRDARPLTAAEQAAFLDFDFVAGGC
T1 sequence (P07949 29-1114 Y791F): as the sequence (P07949 29-1114 V804L) above, with Y763F, L776V counted along it
T3 sequence (P08581 25-1390): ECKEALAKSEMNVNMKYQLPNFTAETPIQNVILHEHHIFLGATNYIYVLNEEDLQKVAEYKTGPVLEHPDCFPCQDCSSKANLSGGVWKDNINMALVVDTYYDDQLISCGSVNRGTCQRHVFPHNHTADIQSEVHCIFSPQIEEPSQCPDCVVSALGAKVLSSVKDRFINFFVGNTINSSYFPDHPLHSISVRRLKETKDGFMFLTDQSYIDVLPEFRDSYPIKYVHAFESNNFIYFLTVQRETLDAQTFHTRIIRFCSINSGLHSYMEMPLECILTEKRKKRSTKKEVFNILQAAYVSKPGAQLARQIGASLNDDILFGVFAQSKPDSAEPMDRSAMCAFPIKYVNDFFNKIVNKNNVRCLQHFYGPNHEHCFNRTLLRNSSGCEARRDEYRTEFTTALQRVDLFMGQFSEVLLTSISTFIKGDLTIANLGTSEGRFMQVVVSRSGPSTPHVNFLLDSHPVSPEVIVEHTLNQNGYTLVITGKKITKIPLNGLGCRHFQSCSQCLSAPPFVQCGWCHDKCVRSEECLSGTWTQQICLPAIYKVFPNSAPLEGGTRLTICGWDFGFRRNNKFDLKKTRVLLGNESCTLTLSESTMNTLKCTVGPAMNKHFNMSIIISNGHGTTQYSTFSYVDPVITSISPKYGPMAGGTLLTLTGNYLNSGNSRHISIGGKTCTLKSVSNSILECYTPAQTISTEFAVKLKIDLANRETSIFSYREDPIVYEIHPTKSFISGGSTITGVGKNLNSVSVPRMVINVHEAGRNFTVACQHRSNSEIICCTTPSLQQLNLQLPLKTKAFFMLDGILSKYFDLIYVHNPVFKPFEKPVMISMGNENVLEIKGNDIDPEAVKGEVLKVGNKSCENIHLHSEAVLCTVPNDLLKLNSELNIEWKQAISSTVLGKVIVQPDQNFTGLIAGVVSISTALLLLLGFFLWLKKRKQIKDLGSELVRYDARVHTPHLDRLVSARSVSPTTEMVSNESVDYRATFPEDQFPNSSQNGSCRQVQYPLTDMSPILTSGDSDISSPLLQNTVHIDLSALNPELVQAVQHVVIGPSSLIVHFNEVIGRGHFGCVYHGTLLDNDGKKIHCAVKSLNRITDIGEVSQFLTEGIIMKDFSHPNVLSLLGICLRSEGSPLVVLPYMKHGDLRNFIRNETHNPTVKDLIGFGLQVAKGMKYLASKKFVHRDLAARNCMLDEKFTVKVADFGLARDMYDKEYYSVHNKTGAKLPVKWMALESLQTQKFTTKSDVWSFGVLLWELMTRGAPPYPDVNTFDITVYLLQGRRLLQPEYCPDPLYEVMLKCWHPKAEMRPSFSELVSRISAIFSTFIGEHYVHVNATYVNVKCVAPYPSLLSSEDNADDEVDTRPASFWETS
T5 sequence (Q5S007 970-2527 G2019S limits assumed): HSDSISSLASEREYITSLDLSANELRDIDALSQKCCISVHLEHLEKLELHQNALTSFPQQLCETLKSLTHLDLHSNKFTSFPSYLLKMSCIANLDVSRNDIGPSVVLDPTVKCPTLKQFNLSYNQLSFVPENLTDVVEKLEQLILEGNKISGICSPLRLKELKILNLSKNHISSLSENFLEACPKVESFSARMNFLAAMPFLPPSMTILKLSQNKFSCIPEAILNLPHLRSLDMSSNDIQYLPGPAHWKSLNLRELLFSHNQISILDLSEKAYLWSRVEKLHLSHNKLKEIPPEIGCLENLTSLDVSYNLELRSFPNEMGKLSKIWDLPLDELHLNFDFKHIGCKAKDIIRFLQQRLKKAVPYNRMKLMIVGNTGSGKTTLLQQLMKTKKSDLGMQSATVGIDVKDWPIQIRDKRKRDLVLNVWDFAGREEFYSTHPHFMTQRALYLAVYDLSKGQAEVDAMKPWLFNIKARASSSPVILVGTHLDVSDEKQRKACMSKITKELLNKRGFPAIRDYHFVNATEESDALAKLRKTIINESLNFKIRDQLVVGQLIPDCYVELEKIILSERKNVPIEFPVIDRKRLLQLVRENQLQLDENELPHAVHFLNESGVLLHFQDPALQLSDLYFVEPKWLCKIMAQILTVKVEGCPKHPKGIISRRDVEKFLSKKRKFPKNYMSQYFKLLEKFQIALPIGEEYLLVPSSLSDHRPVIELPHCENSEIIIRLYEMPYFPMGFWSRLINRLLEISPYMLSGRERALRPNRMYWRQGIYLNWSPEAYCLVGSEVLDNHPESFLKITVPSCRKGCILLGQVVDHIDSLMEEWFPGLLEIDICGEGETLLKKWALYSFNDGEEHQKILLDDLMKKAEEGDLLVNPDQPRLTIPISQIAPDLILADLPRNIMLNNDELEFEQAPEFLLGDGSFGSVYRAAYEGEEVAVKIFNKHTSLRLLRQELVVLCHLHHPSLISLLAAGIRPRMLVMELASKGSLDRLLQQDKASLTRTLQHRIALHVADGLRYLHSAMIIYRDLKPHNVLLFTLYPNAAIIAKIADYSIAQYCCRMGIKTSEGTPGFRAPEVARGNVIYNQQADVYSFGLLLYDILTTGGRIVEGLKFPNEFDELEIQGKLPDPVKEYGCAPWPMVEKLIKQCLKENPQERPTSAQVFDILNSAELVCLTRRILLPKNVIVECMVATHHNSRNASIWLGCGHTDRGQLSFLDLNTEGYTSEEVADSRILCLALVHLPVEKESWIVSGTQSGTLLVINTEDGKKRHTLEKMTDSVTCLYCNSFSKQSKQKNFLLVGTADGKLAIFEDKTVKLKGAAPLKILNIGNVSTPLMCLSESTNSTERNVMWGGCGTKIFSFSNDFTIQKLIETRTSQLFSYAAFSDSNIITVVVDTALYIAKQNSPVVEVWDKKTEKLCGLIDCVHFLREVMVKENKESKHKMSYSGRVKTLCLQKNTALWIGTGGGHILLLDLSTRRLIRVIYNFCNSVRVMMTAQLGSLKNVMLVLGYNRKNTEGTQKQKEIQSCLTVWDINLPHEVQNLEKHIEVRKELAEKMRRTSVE

`COc1ccc2c(c1OC)c(=O)n1c3ccc(O)cc3c3ccnc2c31` [MW01, 5-Hydroxy-10,11-dimethoxy-9H-benzo[c]indolo[3,2,1-ij][1,5]naphthyridin-9-one]: the inhibition at 1 µM on RET Y791F is 17%; at TXK, 12%; at MET (cMet), 14%; on MET (cMet) Y1235D, -2%; on LRRK2 G2019S it was 90%; at PKN1 (PRK1) it was 9%. The figures for the inhibition at 1 µM at FLT4 (VEGFR3), on RET V804L and at EPHA1 were 13%, 15% and 9%, respectively. Moreover, the inhibition at 10 µM at RET Y791F was found to be 32%; at TXK, 29%; at MET (cMet), 35%; on MET (cMet) Y1235D it was 4%; at LRRK2 G2019S, 93%; on PKN1 (PRK1) it was 16%. Moreover, the inhibition at 10 µM stood at 31% on FLT4 (VEGFR3), 38% on RET V804L and 16% at EPHA1.
For `COc1ccc2cc3c(N)nn(C(=O)c4cccc(N(C)C)c4)c3nc2c1` [MW05, (3-Amino-7-methoxypyrazolo[3,4-b]quinolin-1-yl)-[3-(dimethylamino)phenyl]methanone], the inhibition at 1 µM on RET Y791F is 5%; on TXK, 4%; on MET (cMet), 5%; at MET (cMet) Y1235D, 1%; on LRRK2 G2019S it was -2%; on PKN1 (PRK1) it was 15%. The results for the inhibition at 1 µM on FLT4 (VEGFR3), at RET V804L and on EPHA1 were 7%, 2% and 11%, respectively. The inhibition at 10 µM on RET Y791F was 7%; at TXK it was -13%; at MET (cMet), -8%; on MET (cMet) Y1235D, -44%; at LRRK2 G2019S, 16%; at PKN1 (PRK1), 4%. For the same compound, the inhibition at 10 µM at FLT4 (VEGFR3) was -3%; on RET V804L it was 0%; on EPHA1 it was -5%.

Usually inhibition stands for the relative decrease from the control value, in per cent.
